Biological target: CatSper (Homo sapiens, UniProt Q7RTX7+Q86XQ3+Q8NEC5+Q96P56)
Assay: whole-cell patch clamp of human sperm
Assay type: cell-based

Chain of CatSper (Q96P56 whole entry): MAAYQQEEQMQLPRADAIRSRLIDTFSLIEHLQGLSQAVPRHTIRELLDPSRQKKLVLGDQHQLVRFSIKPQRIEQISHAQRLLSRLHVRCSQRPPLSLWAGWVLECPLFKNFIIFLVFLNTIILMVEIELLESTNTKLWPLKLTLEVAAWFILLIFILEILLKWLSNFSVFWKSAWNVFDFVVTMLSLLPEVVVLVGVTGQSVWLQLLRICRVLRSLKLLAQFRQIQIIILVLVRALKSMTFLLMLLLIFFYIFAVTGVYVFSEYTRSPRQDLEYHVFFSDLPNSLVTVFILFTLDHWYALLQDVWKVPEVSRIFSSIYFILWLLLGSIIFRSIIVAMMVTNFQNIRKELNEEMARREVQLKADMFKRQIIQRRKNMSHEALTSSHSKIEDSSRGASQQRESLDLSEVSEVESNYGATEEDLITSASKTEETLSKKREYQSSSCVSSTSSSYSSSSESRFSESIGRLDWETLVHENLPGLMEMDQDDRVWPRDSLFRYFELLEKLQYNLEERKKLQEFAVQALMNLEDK
Chain of CatSper (Q8NEC5 whole entry): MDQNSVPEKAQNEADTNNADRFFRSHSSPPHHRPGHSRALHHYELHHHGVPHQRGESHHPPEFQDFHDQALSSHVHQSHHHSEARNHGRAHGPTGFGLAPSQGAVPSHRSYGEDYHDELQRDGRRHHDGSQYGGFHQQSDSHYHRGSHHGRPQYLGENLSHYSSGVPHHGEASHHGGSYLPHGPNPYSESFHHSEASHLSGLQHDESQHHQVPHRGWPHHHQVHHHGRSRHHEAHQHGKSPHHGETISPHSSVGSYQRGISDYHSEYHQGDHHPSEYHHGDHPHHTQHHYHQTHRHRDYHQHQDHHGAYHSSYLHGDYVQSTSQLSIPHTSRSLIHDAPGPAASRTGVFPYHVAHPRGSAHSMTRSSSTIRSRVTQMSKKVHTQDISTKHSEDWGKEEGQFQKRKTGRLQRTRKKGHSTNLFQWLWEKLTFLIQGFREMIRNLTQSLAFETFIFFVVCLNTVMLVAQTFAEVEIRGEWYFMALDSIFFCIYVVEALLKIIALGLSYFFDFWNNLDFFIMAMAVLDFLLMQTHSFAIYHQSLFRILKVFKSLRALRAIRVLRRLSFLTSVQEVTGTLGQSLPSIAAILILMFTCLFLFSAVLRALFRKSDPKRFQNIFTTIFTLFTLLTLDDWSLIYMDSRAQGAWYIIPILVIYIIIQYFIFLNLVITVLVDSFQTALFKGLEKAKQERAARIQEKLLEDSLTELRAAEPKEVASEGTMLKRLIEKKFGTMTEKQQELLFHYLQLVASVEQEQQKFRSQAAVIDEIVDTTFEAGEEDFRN
Chain of CatSper (Q86XQ3 whole entry): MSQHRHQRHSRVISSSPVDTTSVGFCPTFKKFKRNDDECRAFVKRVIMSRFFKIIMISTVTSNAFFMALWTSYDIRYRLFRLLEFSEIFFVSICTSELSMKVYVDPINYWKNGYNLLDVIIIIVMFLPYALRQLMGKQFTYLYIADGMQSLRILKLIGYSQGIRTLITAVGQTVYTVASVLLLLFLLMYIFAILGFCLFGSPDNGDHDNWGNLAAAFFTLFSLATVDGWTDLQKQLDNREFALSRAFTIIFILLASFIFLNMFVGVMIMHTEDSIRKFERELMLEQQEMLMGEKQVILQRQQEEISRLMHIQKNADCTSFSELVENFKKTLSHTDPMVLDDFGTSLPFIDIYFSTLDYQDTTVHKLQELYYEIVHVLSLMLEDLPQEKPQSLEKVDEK
Chain of CatSper (Q7RTX7 whole entry): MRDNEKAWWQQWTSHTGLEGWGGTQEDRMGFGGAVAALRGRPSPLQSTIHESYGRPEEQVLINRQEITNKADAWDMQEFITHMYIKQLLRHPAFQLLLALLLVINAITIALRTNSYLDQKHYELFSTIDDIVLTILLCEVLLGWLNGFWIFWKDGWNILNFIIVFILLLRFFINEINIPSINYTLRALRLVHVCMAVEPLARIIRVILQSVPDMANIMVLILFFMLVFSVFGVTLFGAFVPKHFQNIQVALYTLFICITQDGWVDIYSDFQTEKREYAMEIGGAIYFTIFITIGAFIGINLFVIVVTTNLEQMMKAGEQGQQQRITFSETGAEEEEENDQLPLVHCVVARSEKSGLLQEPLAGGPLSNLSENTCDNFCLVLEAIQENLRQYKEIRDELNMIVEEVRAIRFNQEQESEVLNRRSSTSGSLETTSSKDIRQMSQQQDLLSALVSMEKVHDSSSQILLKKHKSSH

**Q.** CN[C@H]1CC[C@@H](c2ccc(Cl)c(Cl)c2)c2ccccc21 [Sertraline] was tested. Which IC50 did it give?
**A.** 4.62 ± 1.18 µM

Source: paper PMC8450872 (Human Reproduction (Oxford, England), 2021)
